This is an account of results in ChEMBL document CHEMBL1153052, “Identification of new Hsp90 inhibitors by structure-based virtual screening” (Bioorg Med Chem Lett, 2009).

The source made the active and inactive calls. No cut-off for these calls is given here.

Experiment [1] concerns the target T1, Heat shock protein HSP90 (Homo sapiens) (UniProt P07900+P08238). Kind of experiment: Inhibition of Hsp90 in human MCF7 cells assessed as induction of Hsp70 expression at 20 to 40 uM after 24 hrs by Western blotting. Format: cell-based.
The target in experiment [2] is T1, Heat shock protein HSP90 (Homo sapiens). Briefly: Inhibition of Hsp90 in human MCF7 cells assessed as Her2 degradation at 20 to 40 uM after 24 hrs by Western blotting. The experiment is classed as cell-based.
The next experiment deals with MCF7. Briefly: Cytotoxicity against human MCF7 cells by SRB assay. The experiment is classed as functional, cell-based.
Experiment [3] has as its target ATP-dependent molecular chaperone HSP82 (Saccharomyces cerevisiae S288c, UniProt P02829). Briefly: Inhibition of yeast Hsp90 ATPase activity by ATPase assay using malachite green colorimetric method.

ATP-dependent molecular chaperone HSP82, sequence (P02829 whole entry): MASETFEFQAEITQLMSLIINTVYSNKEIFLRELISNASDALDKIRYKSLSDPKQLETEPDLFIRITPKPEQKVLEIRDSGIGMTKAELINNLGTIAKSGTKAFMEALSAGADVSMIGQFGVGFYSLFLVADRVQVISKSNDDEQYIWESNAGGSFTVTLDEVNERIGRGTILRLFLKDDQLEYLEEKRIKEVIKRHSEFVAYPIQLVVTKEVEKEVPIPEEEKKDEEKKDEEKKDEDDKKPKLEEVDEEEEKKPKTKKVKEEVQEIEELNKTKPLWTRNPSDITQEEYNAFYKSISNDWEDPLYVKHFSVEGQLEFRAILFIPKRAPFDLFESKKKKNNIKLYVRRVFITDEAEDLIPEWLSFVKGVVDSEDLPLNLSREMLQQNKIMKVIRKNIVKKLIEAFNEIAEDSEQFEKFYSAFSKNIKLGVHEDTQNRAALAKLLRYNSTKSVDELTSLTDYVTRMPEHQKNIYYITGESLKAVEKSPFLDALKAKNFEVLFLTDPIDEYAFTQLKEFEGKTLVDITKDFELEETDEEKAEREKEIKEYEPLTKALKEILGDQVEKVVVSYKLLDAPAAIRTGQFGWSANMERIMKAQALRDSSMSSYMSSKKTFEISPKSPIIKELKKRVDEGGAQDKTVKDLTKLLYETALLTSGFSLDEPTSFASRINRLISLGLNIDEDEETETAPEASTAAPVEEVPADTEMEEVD

For `CCOc1cc(/C=C2\C(=O)NC(=O)N(Cc3ccccc3)C2=O)ccc1O`, in experiment [1], the result was inactive.
Consider `O=C1NC(=O)N(c2ccccc2F)C(=O)/C1=C\c1cn(Cc2ccccc2)c2ccccc12`, for which the outcome in experiment [2] and in experiment [1] was Active. Further, the results for the IC50 (with MCF7; in experiment [3]) were 18.1 µM and 24.6 µM, respectively.
As for `O=C(CSc1nnc(-c2cccnc2)n1-c1ccccc1)NCc1ccccc1`, the result in experiment [2] was Active. Further, the result in experiment [1] was inactive.
Compound `COC1=C2C[C@@H](C)C[C@H](OC)[C@H](O)[C@@H](C)/C=C(\C)[C@H](OC(N)=O)[C@@H](OC)/C=C\C=C(/C)C(=O)NC(=CC1=O)C2=O` [GELDANAMYCIN] had an IC50 in the experiment on MCF7 of 9.6 µM.
Consider `Cc1cccc(N2C(=O)NC(=O)/C(=C/c3ccccc3OCC(=O)O)C2=O)c1`, for which the outcome in experiment [2] was Active. Also, the result in experiment [1] was inactive.
For the compound `O=C(CSc1nnc(-c2ccc3c(c2)OCO3)n1-c1ccccc1)c1ccccc1`, the result in experiment [2] was Active. In experiment [1], the result was inactive. In addition, the IC50 with MCF7 is 44.6 µM; in experiment [3], 15.4 µM.
In the case of `COc1ccc(-c2cc(-c3nnc(S)n3-c3cccc4ccccc34)[nH]n2)cc1`, in experiment [2], the outcome was Active. The result in experiment [1] was inactive.
